Experimental findings from US11760722B2 (priority 2022, dated 2023) are described below.

The structures appear in SMILES notation.

In this assay the test system is SARS-CoV-2 Delta USA/MD-HP05647/2021 (Lineage B.1.617.2). In words: microbe, parasite or virus in culture. Format: cell-based. As to conditions: Severe acute respiratory syndrome coronavirus 2, Vero C1008, 4 h; read-out: Vero E6 Delta CPE/EC50.
For `CC(C)(C)[C@H](NS(=O)(=O)c1cc2ccccc2s1)C(=O)N1C[C@H]2[C@@H]([C@H]1C(=O)N[C@H](C#N)C[C@@H]1CCNC1=O)C2(C)C` [Compound 111], the EC50 was less than 4.5 nM.
With `CC(C)(C)[C@H](NC(=O)C(F)(F)C(F)(F)Cl)C(=O)N1C[C@H]2[C@@H]([C@H]1C(=O)N[C@H](C#N)C[C@@H]1CCNC1=O)C2(C)C` [Compound 80], the EC50 was determined as 20.2 nM.
The same measure for `Cc1cc(S(=O)(=O)N[C@H](C(=O)N2C[C@H]3[C@@H]([C@H]2C(=O)N[C@H](C#N)C[C@@H]2CCNC2=O)C3(C)C)C(C)(C)C)sc1Cl` [Compound 168]: 21.8 nM.
The same measure for `CN(C)[C@@H]1C[C@@H](C(=O)N[C@H](C#N)C[C@@H]2CCNC2=O)N(C(=O)[C@@H](NC(=O)C(F)(F)F)C(C)(C)C)C1` [Compound 116]: 4000 nM.
